Assay: Pharmacokinetics after single intravenous bolus of E2 and P in sheep
Format: in vivo
Settings: Dorset crossbred, plasma, E2 160 μg, P 10 mg, mean; for AUC(0-inf): n = 2; for clearance: n = 2, read-out: CL, total body clearance (converted); for half-life: n = 2, read-out: T1/2, terminal half-life (converted); for Vd: n = 2, read-out: Vz, volume of distribution based on terminal elimination phase
From the text: Standard noncompartmental PK analysis methods were used.

| SMILES | AUC(0-inf) [ng·h/mL] | clearance [mL/min] | half-life [h] | Vd [L] |
| --- | --- | --- | --- | --- |
| C[C@]12CC[C@@H]3c4ccc(O)cc4CC[C@H]3[C@@H]1CC[C@@H]2O [E2, 17β-estradiol] | 1.79 | 1490 | 2.22 | 287 |
| CC(=O)[C@H]1CC[C@H]2[C@@H]3CCC4=CC(=O)CC[C@]4(C)[C@H]3CC[C@]12C [P, progesterone] | 20 | 8330 | 2.75 | 1980 |
